Reference: PubChem BioAssay (NCI)
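Step 1: Grow cells in 96-well plates. Step 2: Expose to compound for 48 hours at 5 concentrations. Step 3: Interpolate endpoints linearly; if unreached, use highest concentration. GI50 = concentration required for 50% inhibition of growth. Definition used: TGI = concentration required for complete inhibition of growth.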

Key:
Experiment in all cases: NCI tumour cell line growth inhibition, 48 h
SK-MEL-5 melanoma = system: SK-MEL-5 melanoma
BT-549 breast = system: BT-549 breast
RXF 393 renal = system: RXF 393 renal
MCF7 breast = system: MCF7 breast
786-0 renal = system: 786-0 renal
ACHN renal = system: ACHN renal
SR leukemia = system: SR leukemia
DLD-1 colon = system: DLD-1 colon
DMS 273 small cell lung = system: DMS 273 small cell lung
DMS 114 small cell lung = system: DMS 114 small cell lung
HOP-18 NSCLC = system: HOP-18 NSCLC
KM20L2 colon = system: KM20L2 colon
M19-MEL melanoma = system: M19-MEL melanoma
SNB-78 CNS = system: SNB-78 CNS
SN12K1 renal = system: SN12K1 renal

| SMILES | TGI (SK-MEL-5 melanoma) | TGI (BT-549 breast) | TGI (RXF 393 renal) | TGI (MCF7 breast) | TGI (786-0 renal) | TGI (ACHN renal) | TGI (SR leukemia) | also measured |
| --- | --- | --- | --- | --- | --- | --- | --- | --- |
| CN(C)C(=S)SCc1ccccc1 | > 100 µM | > 100 µM | > 100 µM | > 100 µM |  |  |  |  |
| CCC(C)(C)c1ccc(Oc2cccc(C(=O)O)c2)cc1 | > 100 µM | > 100 µM | > 100 µM | > 100 µM | > 100 µM | > 100 µM |  |  |
| C/C(=C\c1ccc2c(c1)OCO2)[N+](=O)[O-] | 3.93 µM |  |  |  |  |  | 2.39 µM |  |
| CCOC(=O)c1cc(Cl)ccc1OC(N)=O | > 100 µM |  | > 100 µM | > 100 µM |  |  |  | TGI (DLD-1 colon): > 100 µM; TGI (DMS 273 small cell lung): > 100 µM; TGI (DMS 114 small cell lung): > 100 µM; TGI (HOP-18 NSCLC): > 100 µM; TGI (KM20L2 colon): > 100 µM; TGI (M19-MEL melanoma): > 100 µM; TGI (SNB-78 CNS): > 100 µM; TGI (SN12K1 renal): > 100 µM |
| C(=N/Nc1ccccn1)/c1cccnc1 | > 100 µM | > 100 µM | > 100 µM | > 100 µM | > 100 µM | > 100 µM |  |  |
| Cc1cccc(C(O)c2ccccn2)c1O (stereo not drawn) | > 100 µM | > 100 µM | > 100 µM | > 100 µM |  | > 100 µM | > 100 µM |  |
| Nc1nc(Cl)nc2c1ncn2C1CCC(CO)O1 (stereo not drawn) | > 100 µM | > 100 µM | > 100 µM | > 100 µM |  |  | > 100 µM |  |
| Clc1ccc(CSCc2ccc(Cl)cc2Cl)c(Cl)c1 | 97.9 µM | > 100 µM | 94.2 µM | 86.9 µM | > 100 µM | > 100 µM |  |  |
| N#CC(C#N)=Cc1ccc(-c2ccc(-c3nc4ccccc4s3)cc2)s1 | 31.7 µM | 85.2 µM | > 100 µM | > 100 µM |  | 27.3 µM |  | GI50 (SK-MEL-5 melanoma): 11.8 µM; GI50 (BT-549 breast): 31.1 µM; GI50 (RXF 393 renal): 40.5 µM; GI50 (ACHN renal): 13.4 µM; GI50 (MCF7 breast): 26.2 µM |
| CC1=C/C(=C(/c2ccc(O)c(C)c2)c2ccccc2C(=O)O)C=CC1=O | 34.9 µM | 39 µM | 33.8 µM | 34.5 µM | 33.7 µM | 32.2 µM | 47 µM |  |
